Source: the supplement of paper PMC6045584
± gives the standard deviation of the averaged measurements.

How the values were obtained:
EVEROLIMUS = compound: CO[C@H]1C[C@@H]2CC[C@@H](C)[C@@](O)(O2)C(=O)C(=O)N2CCCC[C@H]2C(=O)O[C@H]([C@H](C)C[C@@H]2CC[C@@H](OCCO)[C@H](OC)C2)CC(=O)[C@H](C)/C=C(\C)[C@@H](O)[C@@H](OC)C(=O)[C@H](C)C[C@H](C)/C=C/C=C/C=C/1C [EVEROLIMUS]; assay: surviving fraction relative to DMSO-only wells; higher = less growth inhibition; details: exposure time: 5 days
Method in brief: (§1)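 Viability values are CellTiter-Glo luminescence readings, given as surviving fraction against the median of DMSO-only wells. The readings were taken after 10 minutes at room temperature, following five days of continuous exposure to inhibitors at 0.5, 1, 5, 10, 50, 100, 500 and 1000 nM that began 24 hours after log-phase tumour cell lines were seeded at 250–500 cells per well in 384-well plates. Every line was screened three times and kept only if replicate Pearson r >0.7 and median Z' >0.3.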

[1] = compound: Cc1nc(Nc2n[nH]c3c2CN(C(=O)N[C@H](CN(C)C)c2ccccc2)C3(C)C)c2sccc2n1; assay: as above; details: exposure time: 5 days
Method in brief: as §1

Test System | surviving fraction (EVEROLIMUS; 0.5 nM) | surviving fraction (EVEROLIMUS; 1 nM) | surviving fraction (EVEROLIMUS; 5 nM) | surviving fraction (EVEROLIMUS; 10 nM) | surviving fraction (EVEROLIMUS; 50 nM) | surviving fraction (EVEROLIMUS; 100 nM) | surviving fraction (EVEROLIMUS; 500 nM) | surviving fraction (EVEROLIMUS; 1000 nM) | surviving fraction ([1]; 0.5 nM) | surviving fraction ([1]; 1 nM) | surviving fraction ([1]; 5 nM) | surviving fraction ([1]; 10 nM) | surviving fraction ([1]; 50 nM) | surviving fraction ([1]; 100 nM) | surviving fraction ([1]; 500 nM) | surviving fraction ([1]; 1000 nM)
HCC1395 BREAST | 1.18 ± 0.041 | 1.08 ± 0.03 | 1.19 ± 0.025 | 0.998 ± 0.05 | 1.02 ± 0.099 | 1 ± 0.041 | 0.974 ± 0.026 | 0.951 ± 0.056 | 0.927 ± 0.18 | 0.984 ± 0.06 | 1.06 ± 0.013 | 1.11 ± 0.13 | 0.964 ± 0.14 | 1.16 ± 0.26 | 0.964 ± 0.15 | 0.961 ± 0.16
HCC1806 BREAST | 0.918 ± 0.13 | 0.911 ± 0.043 | 0.888 ± 0.085 | 0.851 ± 0.051 | 0.784 ± 0.095 | 0.859 ± 0.083 | 0.669 ± 0.11 | 0.74 ± 0.12 | 0.842 ± 0.06 | 0.521 ± 0.022 | 0.0733 ± 0.0085 | 0.0613 ± 0.0081 | 0.0497 ± 0.0047 | 0.0377 ± 0.0055 | 0.024 ± 0.001 | 0.0237 ± 0.00058
HCC1954 BREAST | 0.4 ± 0.05 | 0.376 ± 0.082 | 0.399 ± 0.074 | 0.428 ± 0.08 | 0.321 ± 0.014 | 0.308 ± 0.016 | 0.249 ± 0.039 | 0.275 ± 0.037 | 1 ± 0.05 | 0.88 ± 0.12 | 0.43 ± 0.044 | 0.466 ± 0.0085 | 0.487 ± 0.023 | 0.493 ± 0.018 | 0.428 ± 0.028 | 0.253 ± 0.035
HCT15 LARGE INTESTINE | 0.803 ± 0.066 | 0.702 ± 0.066 | 0.599 ± 0.07 | 0.511 ± 0.013 | 0.512 ± 0.055 | 0.511 ± 0.059 | 0.476 ± 0.046 | 0.542 ± 0.037 | 0.998 ± 0.043 | 1.019 ± 0.009 | 1.04 ± 0.03 | 1.04 ± 0.011 | 0.869 ± 0.061 | 1.02 ± 0.036 | 0.172 ± 0.013 | 0.428 ± 0.023
HELA CERVIX | 1.04 ± 0.027 | 1.04 ± 0.014 | 1.04 ± 0.029 | 1.036 ± 0.0052 | 1.15 ± 0.023 | 1.14 ± 0.058 | 1.09 ± 0.036 | 1.16 ± 0.055 | 1.1 ± 0.061 | 1.11 ± 0.056 | 0.936 ± 0.026 | 0.741 ± 0.02 | 0.4922 ± 0.0018 | 0.478 ± 0.0081 | 0.406 ± 0.016 | 0.341 ± 0.026
HMLE3 BREAST | 1.02 ± 0.065 | 0.956 ± 0.02 | 0.813 ± 0.036 | 0.682 ± 0.016 | 0.455 ± 0.063 | 0.402 ± 0.036 | 0.322 ± 0.044 | 0.306 ± 0.019 | 1.01 ± 0.11 | 0.883 ± 0.026 | 0.295 ± 0.02 | 0.144 ± 0.0049 | 0.0967 ± 0.012 | 0.092 ± 0.0036 | 0.066 ± 0.0082 | 0.055 ± 0.002
HMT3552 BREAST | 0.742 ± 0.097 | 0.6117 ± 0.0057 | 0.591 ± 0.021 | 0.598 ± 0.032 | 0.649 ± 0.016 | 0.616 ± 0.049 | 0.545 ± 0.05 | 0.549 ± 0.067 | 0.986 | 0.77 | 0.376 | 0.287 | 0.219 | 0.212 | 0.17 | 0.136
HOS BONE | 0.885 ± 0.015 | 0.861 ± 0.0096 | 0.804 ± 0.018 | 0.742 ± 0.021 | 0.763 ± 0.011 | 0.766 ± 0.012 | 0.711 ± 0.033 | 0.721 ± 0.0092 | 1.02 ± 0.018 | 0.957 ± 0.014 | 0.583 ± 0.02 | 0.409 ± 0.03 | 0.234 ± 0.015 | 0.233 ± 0.0055 | 0.194 ± 0.0038 | 0.112 ± 0.0079
HOSMNG BONE | 1.03 ± 0.013 | 0.95 ± 0.051 | 0.951 ± 0.11 | 0.979 ± 0.07 | 1 ± 0.07 | 1.05 ± 0.1 | 0.999 ± 0.085 | 1.03 ± 0.027 | 0.981 ± 0.063 | 0.995 ± 0.065 | 1.02 ± 0.11 | 0.944 ± 0.025 | 0.821 ± 0.042 | 0.622 ± 0.029 | 0.399 ± 0.024 | 0.253 ± 0.018
HS578T BREAST | 0.6 ± 0.095 | 0.598 ± 0.019 | 0.527 ± 0.047 | 0.524 ± 0.042 | 0.563 ± 0.08 | 0.545 ± 0.048 | 0.471 ± 0.044 | 0.468 ± 0.017 | 0.767 ± 0.024 | 0.713 ± 0.019 | 0.506 ± 0.064 | 0.504 ± 0.05 | 0.374 ± 0.056 | 0.37 ± 0.049 | 0.186 ± 0.029 | 0.095 ± 0.013
HSSYII SYNOVIAL | 0.781 ± 0.043 | 0.711 ± 0.066 | 0.616 ± 0.018 | 0.566 ± 0.025 | 0.476 ± 0.011 | 0.462 ± 0.025 | 0.416 ± 0.051 | 0.3632 ± 0.0025 | 0.679 ± 0.029 | 0.789 ± 0.13 | 0.271 ± 0.021 | 0.281 ± 0.0072 | 0.216 ± 0.007 | 0.215 ± 0.018 | 0.0975 ± 0.0058 | 0.138 ± 0.0053
HT1080 SOFT TISSUE | 1.04 ± 0.029 | 0.991 ± 0.013 | 0.733 ± 0.039 | 0.577 ± 0.045 | 0.496 ± 0.019 | 0.48 ± 0.029 | 0.477 ± 0.036 | 0.477 ± 0.036 | 0.98 ± 0.024 | 0.859 ± 0.018 | 0.295 ± 0.0038 | 0.249 ± 0.013 | 0.194 ± 0.0046 | 0.171 ± 0.0076 | 0.111 ± 0.015 | 0.087 ± 0.0078
HU09 BONE | 0.669 ± 0.016 | 0.602 ± 0.037 | 0.513 ± 0.0057 | 0.512 ± 0.048 | 0.49 ± 0.011 | 0.42 ± 0.011 | 0.382 ± 0.016 | 0.39 ± 0.023 | 0.811 ± 0.053 | 0.67 ± 0.084 | 0.473 ± 0.049 | 0.425 ± 0.081 | 0.381 ± 0.046 | 0.339 ± 0.028 | 0.174 ± 0.023 | 0.111 ± 0.007
JIMT1 BREAST | 0.752 ± 0.021 | 0.663 ± 0.014 | 0.571 ± 0.034 | 0.561 ± 0.022 | 0.56 ± 0.034 | 0.55 ± 0.03 | 0.5 ± 0.016 | 0.494 ± 0.036 | 0.993 ± 0.035 | 0.985 ± 0.03 | 0.888 ± 0.029 | 0.839 ± 0.047 | 0.559 ± 0.041 | 0.51 ± 0.041 | 0.398 ± 0.029 | 0.323 ± 0.0049
JURKAT HAEMATOPOIETIC AND LYMPHOID TISSUE | 0.988 ± 0.023 | 0.917 ± 0.041 | 0.572 ± 0.0079 | 0.557 ± 0.033 | 0.433 ± 0.029 | 0.396 ± 0.034 | 0.326 ± 0.021 | 0.275 ± 0.018 | 1.01 ± 0.032 | 0.939 ± 0.02 | 0.169 ± 0.0038 | 0.095 ± 0.0044 | 0.0877 ± 0.004 | 0.086 ± 0.001 | 0.06 ± 0.001 | 0.051
KPD BONE | 0.603 ± 0.044 | 0.529 ± 0.026 | 0.457 ± 0.016 | 0.422 ± 0.019 | 0.408 ± 0.025 | 0.384 ± 0.017 | 0.343 ± 0.012 | 0.338 ± 0.02 | 0.632 ± 0.036 | 0.569 ± 0.027 | 0.425 ± 0.042 | 0.344 ± 0.011 | 0.259 ± 0.021 | 0.224 ± 0.027 | 0.0937 ± 0.01 | 0.058 ± 0.0053
LM7 BONE | 0.934 ± 0.053 | 0.87 ± 0.056 | 0.803 ± 0.1 | 0.785 ± 0.12 | 0.77 ± 0.085 | 0.752 ± 0.046 | 0.674 ± 0.087 | 0.609 ± 0.044 | 0.842 ± 0.039 | 0.674 ± 0.036 | 0.51 ± 0.0046 | 0.457 ± 0.046 | 0.386 ± 0.033 | 0.327 ± 0.036 | 0.115 ± 0.006 | 0.0547 ± 0.0084
MCF7 BREAST | 0.673 ± 0.049 | 0.597 ± 0.058 | 0.502 ± 0.046 | 0.495 ± 0.024 | 0.527 ± 0.011 | 0.505 ± 0.012 | 0.504 ± 0.021 | 0.514 ± 0.024 | 0.89 ± 0.077 | 0.857 ± 0.024 | 0.621 ± 0.036 | 0.746 ± 0.035 | 0.547 ± 0.01 | 0.546 ± 0.022 | 0.395 ± 0.019 | 0.486 ± 0.0057
MDAMB134 BREAST | 0.843 | 0.789 ± 0.071 | 0.63 ± 0.069 | 0.642 ± 0.11 | 0.616 ± 0.1 | 0.688 ± 0.11 | 0.569 ± 0.11 | 0.573 ± 0.09 | 0.805 ± 0.016 | 0.954 ± 0.014 | 0.909 ± 0.029 | 0.924 ± 0.02 | 1.04 ± 0.044 | 1.02 ± 0.017 | 1.13 ± 0.035 | 0.961 ± 0.2
MDAMB157 BREAST | 0.696 ± 0.11 | 0.817 ± 0.043 | 0.747 ± 0.05 | 0.692 ± 0.011 | 0.634 ± 0.05 | 0.712 ± 0.052 | 0.598 ± 0.041 | 0.572 ± 0.095 | 0.841 ± 0.14 | 0.792 ± 0.055 | 0.623 ± 0.11 | 0.545 ± 0.019 | 0.405 ± 0.055 | 0.29 ± 0.048 | 0.159 ± 0.013 | 0.119 ± 0.021
